Among the data in patent US20250018014A1, “METHOD FOR TREATING AND/OR PREVENTING REGNASE-1-RELATED DISEASE” (OSAKA UNIVERSITY, priority 2018, published 2025) are IC50 values, retold here.

Structures are written as SMILES. Residues, ends and D or L forms follow the SMILES beside them.

Experiment [1] has as its target T1, Reg1_301-599 (amino acids 301-599 of human Regnase-1) phosphorylation by TBK1 (Homo sapiens, UniProt Q5D1E8).
T1 construct: made in house; host or cells: Expi293 cells
T1 sequence (Q5D1E8 301-599): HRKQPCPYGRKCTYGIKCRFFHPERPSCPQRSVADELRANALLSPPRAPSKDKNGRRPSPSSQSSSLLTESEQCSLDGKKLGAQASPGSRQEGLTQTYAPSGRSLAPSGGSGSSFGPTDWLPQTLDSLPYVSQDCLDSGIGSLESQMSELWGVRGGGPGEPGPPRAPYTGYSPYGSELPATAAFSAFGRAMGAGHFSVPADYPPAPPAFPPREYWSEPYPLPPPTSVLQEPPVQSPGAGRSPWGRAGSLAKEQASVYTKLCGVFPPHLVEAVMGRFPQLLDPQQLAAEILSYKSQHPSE
The experiment is described as follows: Regnase-1 phosphorylation inhibition by compounds (AlphaScreen), TBK1, C-terminal Regnase-1. Type of experiment: biochemical. To be noted: Table 13, read-out: Phosphorylation inhibition Reg1_301-599, 50% inhibition concentration (TBK1). The procedure: (§1) Among the full-length human Regnase-1 sequence, the 1st to 546th amino acid sequence was prepared and made into a construct having a FLAG tag on the N-terminal side and a biotin ligase BirA recognition sequence on the C-terminal side (herein, a Regnase-1 lacking the C-terminal domain of Regnase-1 (amino acids 547 to 599 in the case of SEQ ID NO: 2) is referred to as “ΔCTD_Reg1”. “ΔCTD_Reg1” is different from “Regnase-1ΔCTD”, which is a C-terminal domain deletion variant resulting from a frameshift mutation caused by a 1 bp deletion at codon 517, as prepared in Example 13). In addition, the sequence from amino acids 301 to 599 of the full-length human Regnase-1 sequence was designated as C-terminal Regnase-1, and a construct having a FLAG tag on the N-terminal side and a recognition sequence for biotin ligase BirA on the C-terminal side was prepared (Reg1_301-599). The above-mentioned Regnase-1 was expressed in mammalian Expi293 cells, purified with FLAG M2 agarose, and isolated by gel filtration chromatography. When biotinylation was required, methods of nonpatent documents (BMC biotechnology, 2008,8,41; and Protein Science, 1999,8,921-929) were used.
(§2) Using Kinase assay buffer III (manufactured by SignalChem) supplemented with 2 mM DTT, 100 μM sodium vanadate, and 2 mM manganese chloride, kinase (IKKβ (manufactured by SignalChem) or TBK1 (manufactured by SignalChem)) and Regnase-1 were reacted in the presence of 10 μM ATP at room temperature for 2 hours to perform a phosphorylation reaction.
(§3) Phosphorylated Regnase-1 was detected by the AlphaScreen system. After each of the above-mentioned phosphorylated Regnase-1 antibodies was added and reacted at room temperature for one hour, anti-FLAG AlphaLISA Acceptor Beads (manufactured by PerkinElmer) and Protein A AlphaScreen Donor Beads (manufactured by PerkinElmer) were added, and EnVision (manufactured by PerkinElmer) was used to measure the excited luminescence. As a result, phosphorylated Regnase-1 produced by the phosphorylation reaction by kinase was specifically detected, and signals were confirmed to be enhanced in a manner dependent on Regnase-1 and kinase concentrations (FIG. 24).
(§4) After mixing 2 nM of the above-mentioned Regnase-1 and the compound, phosphorylated Regnase-1 produced by the phosphorylation reaction was detected by the AlphaScreen system. As the results, the inhibition rate was calculated from the signals obtained when adding the compound at each concentration, by defining the signal obtained with Regnase-1 alone to be 100% inhibition rate, and the signal obtained when the same amount of solvent (DMSO) is added in place of the compound as 0% inhibition rate. The 50% inhibition concentration (μM) was calculated from the obtained dose response curve (Table 11).
For orientation: In Alpha technology, singlet oxygen from a donor bead excites a nearby acceptor bead.

Experiment [2] addresses T2, binding between IKKβ and full-length Regnase-1 (FL_Reg1) (Homo sapiens, UniProt Q5D1E8).
T2 construct: made in house; host or cells: Expi293 cells
T2 sequence (Q5D1E8 1-599): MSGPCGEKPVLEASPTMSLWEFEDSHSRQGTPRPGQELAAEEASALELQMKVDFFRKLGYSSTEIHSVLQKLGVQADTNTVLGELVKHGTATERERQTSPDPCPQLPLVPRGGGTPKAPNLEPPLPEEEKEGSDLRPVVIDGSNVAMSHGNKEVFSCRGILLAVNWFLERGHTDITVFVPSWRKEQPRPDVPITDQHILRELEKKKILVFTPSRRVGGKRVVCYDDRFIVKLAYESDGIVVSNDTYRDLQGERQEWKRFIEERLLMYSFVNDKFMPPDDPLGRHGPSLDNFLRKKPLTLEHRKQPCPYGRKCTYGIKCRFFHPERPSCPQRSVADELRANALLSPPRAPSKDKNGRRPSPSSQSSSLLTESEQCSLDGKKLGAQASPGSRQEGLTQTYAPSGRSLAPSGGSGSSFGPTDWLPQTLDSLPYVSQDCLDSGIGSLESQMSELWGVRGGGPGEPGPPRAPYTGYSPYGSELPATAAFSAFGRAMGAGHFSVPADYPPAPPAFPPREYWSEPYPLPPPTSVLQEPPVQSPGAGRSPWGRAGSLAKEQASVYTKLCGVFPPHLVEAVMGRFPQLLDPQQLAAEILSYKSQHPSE
Description: Inhibition of kinase-Regnase-1 binding by the compounds (AlphaScreen), IKKβ. Conditions: Table 14; binding between IKKβ and Regnase-1; read-out: Binding inhibition FL_Reg1, 50% inhibition concentration (IKKβ). The procedure: (§5) As a target protein, a construct having a FLAG tag on the N-terminal side and a recognition sequence for biotin ligase BirA on the C-terminal side of the full-length sequence of human Regnase-1 (UniProt ID: Q5D1E8) was prepared (FL_Reg1). The above-mentioned Regnase-1 was expressed in mammalian Expi293 cells, purified with FLAG M2 agarose, and isolated by gel filtration chromatography. When biotinylation was required, methods from nonpatent documents (BMC biotechnology, 2008,8,41; and Protein Science, 1999,8,921-929) were used.
(§6) After mixing 2.5 nM of the above-mentioned Regnase-1 and the compound, 2.5 nM of IKKβ or TBK1 was added and reacted at room temperature for two hours. Then, Anti FLAG AlphaLISA Acceptor Beads (manufactured by PerkinElmer) and Glutathione-coated AlphaScreen Donor Beads (manufactured by PerkinElmer) were added, and excited luminescence was measured using En Vision (manufactured by PerkinElmer). As the results, the inhibition rate from the signals obtained when adding the compound at each concentration were calculated, by defining the signal obtained with Regnase-1 alone to be 100% inhibition rate, and the signal obtained when the same amount of solvent (DMSO) is added in place of the compound as 0% inhibition rate. The 50% inhibition concentration (μM) was calculated from the obtained dose response curve (Table 12).

For experiment [3], the target named is T3, FL_Reg1 (full-length human Regnase-1) phosphorylation by IKKβ (Homo sapiens, UniProt Q5D1E8).
T3 construct: made in house; host or cells: Expi293 cells
T3 sequence (Q5D1E8 1-599): T2 sequence (Q5D1E8 1-599)
Description: Regnase-1 phosphorylation inhibition by compounds (AlphaScreen), IKKβ, full-length Regnase-1. The experiment is classed as biochemical. To be noted: Table 14; phosphorylation by IKKβ; read-out: Phosphorylation inhibition FL_Reg1, 50% inhibition concentration (IKKβ).
Text: (§7) The full-length sequence of human Regnase-1 (UniProt ID: Q5D1E8) was used to prepare a construct having a FLAG tag on the N-terminal side and a recognition sequence for biotin ligase BirA on the C-terminal side (FL_Reg1) as a target protein. The above-mentioned Regnase-1 was expressed in mammalian Expi293 cells, purified with FLAG M2 agarose, and isolated by gel filtration chromatography. When biotinylation was required, methods from nonpatent documents (BMC biotechnology, 2008,8,41; and Protein Science, 1999,8,921-929) were used. […]
as §2, §3, §4

The target in experiment [4] is T4, binding between TBK1 and full-length Regnase-1 (FL_Reg1) (Homo sapiens, UniProt Q5D1E8).
T4 construct: made in house; host or cells: Expi293 cells
T4 sequence (Q5D1E8 1-599): T2 sequence (Q5D1E8 1-599)
Description: Inhibition of kinase-Regnase-1 binding by the compounds (AlphaScreen), TBK1. To be noted: Table 13; binding between TBK1 and Regnase-1; read-out: Binding inhibition FL_Reg1, 50% inhibition concentration (TBK1). Here is the method:
as §5, §6

Experiment [5] deals with T5, Reg1_301-599 (amino acids 301-599 of human Regnase-1) phosphorylation by IKKβ (Homo sapiens, UniProt Q5D1E8).
T5 construct: made in house; host or cells: Expi293 cells
T5 sequence (Q5D1E8 301-599): T1 sequence (Q5D1E8 301-599)
The experiment is described as follows: Regnase-1 phosphorylation inhibition by compounds (AlphaScreen), IKKβ, C-terminal Regnase-1. The experiment is classed as biochemical. To be noted: Table 14, read-out: Phosphorylation inhibition Reg1_301-599, 50% inhibition concentration (IKKβ).
Text: The full-length sequence of human Regnase-1 (UniProt ID: Q5D1E8) was used to prepare a construct having a FLAG tag on the N-terminal side and a recognition sequence for biotin ligase BirA on the C-terminal side (FL_Reg1) as a target protein. The above-mentioned Regnase-1 was expressed in mammalian Expi293 cells, purified with FLAG M2 agarose, and isolated by gel filtration chromatography. When biotinylation was required, methods from nonpatent documents (BMC biotechnology, 2008,8,41; and Protein Science, 1999,8,921-929) were used.
as §1, §2, §3, §4

Experiment [6] addresses T6, FL_Reg1 (full-length human Regnase-1) phosphorylation by TBK1 (Homo sapiens, UniProt Q5D1E8).
T6 construct: made in house; host or cells: Expi293 cells
T6 sequence (Q5D1E8 1-599): T2 sequence (Q5D1E8 1-599)
Description: Regnase-1 phosphorylation inhibition by compounds (AlphaScreen), TBK1, full-length Regnase-1. The experiment is classed as biochemical. To be noted: Table 13; phosphorylation by TBK1; read-out: Phosphorylation inhibition FL_Reg1, 50% inhibition concentration (TBK1).
Text: as §7, §2, §3, §4

Consider `CC[C@H](C)[C@@H]1NC(=O)[C@H](Cc2c[nH]c3ccccc23)NC(=O)[C@H](CO)NC(=O)[C@H](Cc2c[nH]c3ccccc23)NC(=O)[C@H](C(C)C)NC(=O)CNC(=O)[C@H](Cc2ccccc2)NC(=O)[C@H](CCCNC(=N)N)NC(=O)[C@H](C)N(C)C(=O)C[C@@H](C(=O)N2CCCC2)NC(=O)[C@@H]2CCCN2C(=O)[C@H](Cc2ccc(O)cc2)NC1=O` [PP14] (HELM PEPTIDE1{[meA].R.F.G.V.W.S.W.I.Y.P.D.[C1CCN([*:1])C1]}$PEPTIDE1,PEPTIDE1,1:R1-12:R3$$$V2.0), for which the IC50 in experiment [1] came to 6.8 µM; in experiment [2], 20.1 µM; in experiment [3], 1.6 µM; in experiment [4] it was 7.1 µM; in experiment [5] it was 6.5 µM; in experiment [6], 3.1 µM.
For `CC[C@H](C)[C@@H]1NC(=O)[C@H](C)NC(=O)[C@H](CCCNC(=N)N)NC(=O)[C@H](Cc2ccc(O)cc2)NC(=O)[C@H](Cc2ccc(O)cc2)NC(=O)[C@H](C)NC(=O)[C@H](CO)NC(=O)[C@H](CC(N)=O)NC(=O)[C@H](Cc2ccccc2)NC(=O)[C@H](CC(N)=O)NC(=O)[C@H](C)N(C)C(=O)C[C@@H](C(=O)N2CCCC2)NC(=O)[C@H](Cc2c[nH]c3ccccc23)NC1=O` [PP7] (HELM PEPTIDE1{[meA].N.F.N.S.A.Y.Y.R.A.I.W.D.[C1CCN([*:1])C1]}$PEPTIDE1,PEPTIDE1,1:R1-13:R3$$$V2.0), the IC50 in experiment [1] was found to be 4.6 µM; in experiment [2], 15.1 µM; in experiment [3], 0.8 µM; in experiment [4] it was 17.9 µM; in experiment [6], 2.2 µM.
For the compound `CC[C@H](C)[C@@H]1NC(=O)[C@H](CC(N)=O)NC(=O)[C@H](Cc2ccc(O)cc2)NC(=O)[C@H](Cc2c[nH]c3ccccc23)NC(=O)[C@H](CO)NC(=O)[C@H](CC(N)=O)NC(=O)[C@H](Cc2c[nH]c3ccccc23)NC(=O)[C@H](Cc2ccc(O)cc2)NC(=O)[C@H](CCCCN)NC(=O)[C@H](CO)NC(=O)[C@@H](C)N(C)C(=O)C[C@@H](C(=O)N2CCCC2)NC(=O)[C@H](Cc2c[nH]c3ccccc23)NC1=O` [PP8] (HELM PEPTIDE1{[C[C@H](C(=O)[*:2])N(C)[*:1]].S.K.Y.W.N.S.W.Y.N.I.W.D.[C1CCN([*:1])C1]}$PEPTIDE1,PEPTIDE1,1:R1-13:R3$$$V2.0), the IC50 in experiment [2] was 7.4 µM; in experiment [3] it was 1.4 µM; in experiment [4] it was 6.5 µM; in experiment [5], 5.7 µM; in experiment [6], 2.9 µM.
